Reference: patent US9133104B2 (Chroma Therapeutics Ltd., priority 2005, dated 2015)

Columns and labels:
U937 cancer cell line = test: Cell inhibition assay (SRB cell viability), U937; type: cell-based; settings: Homo sapiens, U-937, U937 cells, 72 h, IC50 range
How it was run: (§1)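 Log-phase Hela, U937 and HUT cells were seeded at 1000 cells/well, grown 24 h, then exposed to compound (20 uM final) for 72 h. Viability was read by sulphorhodamine B staining and expressed as % inhibition relative to DMSO control. IC50 values came from sigmoidal variable-slope fits of eight concentrations.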

Hela cancer cell line = test: Cell inhibition assay (SRB cell viability), Hela; type: cell-based; settings: Homo sapiens, HeLa, 72 h, Hela cells, IC50 range
How it was run: as §1

[1] = molecular target: T1, histone deacetylase activity (HeLa nuclear extract); test: HDAC fluorescent activity assay (Biomol Fluor de Lys), HeLa nuclear extract; type: biochemical; settings: Fluor de Lys substrate, IC50 range
T1 construct: Histone deacetylase activity from crude nuclear extract derived from HeLa cells was used for screening
How it was run: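 Crude HeLa nuclear extract (20 mM Hepes, 100 mM KCl, 0.2 mM EDTA, 0.5 mM DTT, 0.2 mM PMSF, 20% glycerol) incubated with acetyl-lysine Fluor de Lys substrate ± inhibitor; developer generates fluorophore. Background-subtracted % of vehicle control; IC50 from eight-point variable-slope sigmoidal fit.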

HUT cancer cell line = test: Cell inhibition assay (SRB cell viability), HUT; type: cell-based; settings: HUT cells, 72 h, IC50 range
How it was run: as §1

With CSCC[C@H](NCc1ccc(CNCc2ccc3cc(C(=O)NO)sc3c2)cc1)C(=O)OC1CCCC1 [Compound 110, (S)-2-(4-{[(2-Hydroxycarbamoyl-benzo[b]thiophen-6-ylmethyl)-amino]-methyl}-benzylamino)-4-methylsulfanyl-butyric acid cyclopentyl ester] the IC50 (U937 cancer cell line) was < 330 nM, the IC50 (Hela cancer cell line) was 330 to 3300 nM and the IC50 [1] was < 100 nM. For the same compound, the IC50 (HUT cancer cell line) was < 330 nM.

In the case of O=C(CCCCCCC(=O)N1CCc2c([nH]c3ccccc23)C1C(=O)N[C@H](C(=O)O)c1ccccc1)NO (stereo partly drawn) [Compound 10, (S)-{[2-(7-Hydroxycarbamoyl-heptanoyl)-2,3,4,9-tetrahydro-1H-beta-carboline-1-carbonyl]amino}-phenyl-acetic acid], the IC50 (U937 cancer cell line) is reported as > 3300 nM, the IC50 (Hela cancer cell line) is reported as > 3300 nM and the IC50 [1] is reported as < 100 nM. The IC50 (HUT cancer cell line) was > 3300 nM.

In the case of O=C(CCCCCCC(=O)N1CCc2c([nH]c3ccccc23)C1CN[C@H](C(=O)O)c1ccccc1)NO (stereo partly drawn) [Compound 43, (S)-{[2-(7-Hydroxycarbamoyl-heptanoyl)-2,3,4,9-tetrahydro-1H-beta-carbolin-1-ylmethyl]-amino}-phenyl-acetic acid], the IC50 (U937 cancer cell line) is reported as > 3300 nM, the IC50 (Hela cancer cell line) is reported as > 3300 nM and the IC50 [1] is reported as 101 to 1000 nM. The IC50 (HUT cancer cell line) was > 3300 nM.

With CC(C)(C)OC[C@H](NCc1ccc(NC(=O)CCCCCCC(=O)NO)cc1)C(=O)OC1CCCC1 [Compound 89, (S)-3-tert-Butoxy-2-[4-(7-hydroxycarbamoyl-heptanoylamino)-benzylamino]-propionic acid cyclopentyl ester] the IC50 (U937 cancer cell line) was < 330 nM, the IC50 (Hela cancer cell line) was > 3300 nM and the IC50 [1] was 101 to 1000 nM. It also gave an IC50 (HUT cancer cell line) of 330 to 3300 nM.

O=C(CCCCCCC(=O)Nc1ccc(CN[C@@H](C(=O)OC2CCCC2)c2ccccc2)cc1)NO [Compound 83, (R)-[4-(7-Hydroxycarbamoyl-heptanoylamino)-benzylamino]-phenyl-acetic acid cyclopentyl ester] showed an IC50 (U937 cancer cell line) of 330 to 3300 nM, an IC50 (Hela cancer cell line) of 330 to 3300 nM and an IC50 [1] of 101 to 1000 nM. It also gave an IC50 (HUT cancer cell line) of 330 to 3300 nM.

CC(OC(C)(C)C)[C@H](NCc1ccc(NC(=O)CCCCCCC(=O)NO)cc1)C(=O)OC1CCCC1 (stereo partly drawn) [Compound 88, (S)-3-tert-Butoxy-2-[4-(7-hydroxycarbamoyl-heptanoylamino)-benzylamino]-butyric acid cyclopentyl ester] was tested, and the IC50 (U937 cancer cell line) was < 330 nM, the IC50 (Hela cancer cell line) was 330 to 3300 nM and the IC50 [1] was 101 to 1000 nM. It also gave an IC50 (HUT cancer cell line) of 330 to 3300 nM.

O=C(CCCCCCC(=O)Nc1ccc(S(=O)(=O)N[C@H](C(=O)OC2CCCC2)c2ccccc2)cc1)NO [Compound 22, (S)-[4-(7-Hydroxycarbamoyl-heptanoylamino)-benzenesulfonylamino]-phenyl-acetic acid cyclopentyl ester] gave an IC50 (U937 cancer cell line) of 330 to 3300 nM, an IC50 (Hela cancer cell line) of 330 to 3300 nM and an IC50 [1] of 101 to 1000 nM. It also gave an IC50 (HUT cancer cell line) of 330 to 3300 nM.

O=C(CCCCCCC(=O)Nc1cccc(CCN[C@H](C(=O)OC2CCCC2)c2ccccc2)c1)NO [Compound 71, (S)-{2-[3-(7-Hydroxycarbamoyl-heptanoylamino)-phenyl]-ethylamino}-phenyl-acetic acid cyclopentyl ester] was tested, and the IC50 (U937 cancer cell line) was < 330 nM, the IC50 (Hela cancer cell line) was 330 to 3300 nM and the IC50 [1] was < 100 nM. It also gave an IC50 (HUT cancer cell line) of 330 to 3300 nM.

In the case of O=C(CCCCCCC(=O)N1CCc2c([nH]c3ccccc23)C1C(=O)NC(C(=O)OC1CCCC1)c1ccccc1)NO [Compound 9, (S)-{[2-(7-Hydroxycarbarnoyl-heptanoyl)-2,3,4,9-tetrahydro-1H-beta-carboline-1-carbonyl]-amino}-phenyl-acetic acid cyclopentyl ester], the IC50 (U937 cancer cell line) is reported as 330 to 3300 nM, the IC50 (Hela cancer cell line) is reported as 330 to 3300 nM and the IC50 [1] is reported as 101 to 1000 nM. The IC50 (HUT cancer cell line) was 330 to 3300 nM.

For O=C(CCCCCCC(=O)Nc1ccc(S(=O)(=O)N[C@H](C(=O)O)c2ccccc2)cc1)NO [Compound 23, (S)-[4-(7-Hydroxycarbamoyl-heptanoylamino)-benzenesulfonylamino]-phenyl-acetic acid], the IC50 (U937 cancer cell line) was > 3300 nM, the IC50 (Hela cancer cell line) was > 3300 nM and the IC50 [1] was 101 to 1000 nM. The IC50 (HUT cancer cell line) was > 3300 nM.

In the case of O=C(CCCCCCC(=O)Nc1ccccc1CN[C@H](C(=O)OC1CCCC1)c1ccccc1)NO [Compound 40, (S)-[2-(7-Hydroxycarbamoyl-heptanoylamino)-benzylamino]-phenyl-acetic acid cyclopentyl ester], the IC50 (U937 cancer cell line) is reported as > 3300 nM, the IC50 (Hela cancer cell line) is reported as > 3300 nM and the IC50 [1] is reported as > 1000 nM. The IC50 (HUT cancer cell line) was > 3300 nM.

In the case of O=C(Cc1ccc(OCCCC(=O)N[C@@H](Cc2ccccc2)C(=O)OC2CCCC2)cc1)Nc1ccc2sc(C(=O)NO)cc2c1 [Compound 102, (S)-2-(4-{4-[(2-Hydroxycarbamoyl-benzo[b]thiophen-5-ylcarbamoyl)-methyl]-phenoxy}-butyrylamino)-3-phenyl-propionic acid cyclopentyl ester], the IC50 (U937 cancer cell line) is reported as 330 to 3300 nM, the IC50 (Hela cancer cell line) is reported as > 3300 nM and the IC50 [1] is reported as 101 to 1000 nM. The IC50 (HUT cancer cell line) was > 3300 nM.

For CCOC(=O)[C@H](CCc1ccccc1)NCc1cccc(NC(=O)CCCCCCC(=O)NO)c1 [Compound 29, (S)-2-[3-(7-Hydroxycarbamoyl-heptanoylamino)-benzylamino]-4-phenyl-butyric acid ethyl ester], the IC50 (U937 cancer cell line) was 330 to 3300 nM, the IC50 (Hela cancer cell line) was 330 to 3300 nM and the IC50 [1] was 101 to 1000 nM. It also gave an IC50 (HUT cancer cell line) of 330 to 3300 nM.

With O=C(NO)c1cc2ccc(CNCc3ccc(CN[C@H](C(=O)OC4CCCC4)c4ccccc4)cc3)cc2s1 [Compound 124, (S)-(4-{[(2-Hydroxycarbamoyl-benzo[b]thiophen-6-ylmethyl)-amino]-methyl}-benzylamino)-phenyl-acetic acid cyclopentyl ester] the IC50 (U937 cancer cell line) was < 330 nM, the IC50 (Hela cancer cell line) was 330 to 3300 nM and the IC50 [1] was 101 to 1000 nM. For the same compound, the IC50 (HUT cancer cell line) was 330 to 3300 nM.

CCOC(=O)[C@H](Cc1ccccc1)NC(=O)[C@@H]1Cc2c([nH]c3ccccc23)CN1C(=O)CCCCCCC(=O)NO [Compound 7, (S)-2-{[(S)-2-(7-Hydroxycarbamoyl-heptanoyl)-2,3,4,9-tetrahydro-1H-beta-carboline-3-carbonyl]-amino}-3-phenyl-propionic acid ethyl ester] was tested, and the IC50 (U937 cancer cell line) was 330 to 3300 nM, the IC50 (Hela cancer cell line) was > 3300 nM and the IC50 [1] was 101 to 1000 nM. For the same compound, the IC50 (HUT cancer cell line) was 330 to 3300 nM.

C[C@H](NCc1ccc(CNCc2ccc3cc(C(=O)NO)sc3c2)cc1)C(=O)OC1CCCC1 [Compound 118, (S)-2-(4-{[(2-Hydroxycarbamoyl-benzo[b]thiophen-6-ylmethyl)-amino]-methyl}-benzylamino)-propionic acid cyclopentyl ester] was tested, and the IC50 (U937 cancer cell line) was < 330 nM, the IC50 (Hela cancer cell line) was < 330 nM and the IC50 [1] was < 100 nM. For the same compound, the IC50 (HUT cancer cell line) was < 330 nM.

With CCOC(=O)[C@H](Cc1ccccc1)NC(=O)[C@H]1Cc2c([nH]c3ccccc23)CN1C(=O)CCCCCCC(=O)NO [Compound 5, (S)-2-{[(R)-2-(7-Hydroxycarbamoyl-heptanoyl)-2,3,4,9-tetrahydro-1H-beta-carboline-3-carbonyl]-amino}-3-phenyl-propionic acid ethyl ester] the IC50 (U937 cancer cell line) was 330 to 3300 nM, the IC50 (Hela cancer cell line) was 330 to 3300 nM and the IC50 [1] was 101 to 1000 nM. For the same compound, the IC50 (HUT cancer cell line) was 330 to 3300 nM.

O=C(CCCCCCC(=O)N1Cc2[nH]c3ccccc3c2[C@H](C(=O)N[C@@H](Cc2ccccc2)C(=O)OC2CCCC2)C1)NO [Compound 58, (S)-2-{[(S)-2-(7-Hydroxycarbamoyl-heptanoyl)-2,3,4,9-tetrahydro-1H-beta-carboline-4-carbonyl]-amino}-3-phenyl-propionic acid cyclopentyl ester] showed an IC50 (U937 cancer cell line) of 330 to 3300 nM, an IC50 (Hela cancer cell line) of 330 to 3300 nM and an IC50 [1] of 101 to 1000 nM. The IC50 (HUT cancer cell line) was 330 to 3300 nM.

CCOC(=O)[C@H](Cc1ccccc1)NC(=O)[C@@H]1Cc2ccccc2CN1C(=O)CCCCCCC(=O)NO [Compound 47, (S)-2-{[(S)-2-(7-Hydroxycarbamoyl-heptanoyl)-1,2,3,4-tetrahydro-isoquinoline-3-carbonyl]-amino}-3-phenyl-propionic acid ethyl ester] was tested, and the IC50 (U937 cancer cell line) was 330 to 3300 nM, the IC50 (Hela cancer cell line) was > 3300 nM and the IC50 [1] was 101 to 1000 nM. It also gave an IC50 (HUT cancer cell line) of 330 to 3300 nM.

With O=C(CCCCCCNC(=O)c1cc2cc(CCC(=O)N[C@@H](Cc3ccccc3)C(=O)OC3CCCC3)ccc2[nH]1)NO [Compound 100, (S)-2-{3-[2-(6-Hydroxycarbamoyl-hexylcarbamoyl)-1H-indol-5-yl]-propionylamino}-3-phenyl-propionic acid cyclopentyl ester] the IC50 (U937 cancer cell line) was 330 to 3300 nM, the IC50 (Hela cancer cell line) was > 3300 nM and the IC50 [1] was < 100 nM. The IC50 (HUT cancer cell line) was 330 to 3300 nM.

With CC(C)(C)OC[C@H](NCc1cccc(NC(=O)CCCCCCC(=O)NO)c1)C(=O)OC1CCCC1 [Compound 34, (S)-3-tert-Butoxy-2-[3-(7-hydroxycarbamoyl-heptanoylamino)-benzylamino]-propionic acid cyclopentyl ester] the IC50 (U937 cancer cell line) was < 330 nM, the IC50 (Hela cancer cell line) was 330 to 3300 nM and the IC50 [1] was 101 to 1000 nM. For the same compound, the IC50 (HUT cancer cell line) was 330 to 3300 nM.

For O=C(CCCCCCC(=O)Nc1cccc(CNC(=O)N[C@@H](Cc2ccccc2)C(=O)OC2CCCC2)c1)NO [Compound 81, (S)-2-{3-[3-(7-Hydroxycarbamoyl-heptanoylamino)-benzyl]-ureido}-3-phenyl-propionic acid cyclopentyl ester], the IC50 (U937 cancer cell line) was > 3300 nM, the IC50 (Hela cancer cell line) was > 3300 nM and the IC50 [1] was < 100 nM. For the same compound, the IC50 (HUT cancer cell line) was 330 to 3300 nM.

With CC(C)C[C@H](NCc1ccc(NC(=O)CCCCCCC(=O)NO)cc1)C(=O)OC1CCCC1 [Compound 85, (S)-2-[4-(7-Hydroxycarbamoyl-heptanoylamino)-benzylamino]-4-methyl-pentanoic acid cyclopentyl ester] the IC50 (U937 cancer cell line) was < 330 nM, the IC50 (Hela cancer cell line) was > 3300 nM and the IC50 [1] was 101 to 1000 nM. The IC50 (HUT cancer cell line) was 330 to 3300 nM.

For O=C(CCCCCCC(=O)N1CCc2c([nH]c3ccc(OCC(=O)N[C@H](C(=O)O)c4ccccc4)cc23)C1)NO [Compound 25], the IC50 (U937 cancer cell line) was > 3300 nM, the IC50 (Hela cancer cell line) was > 3300 nM and the IC50 [1] was 101 to 1000 nM. For the same compound, the IC50 (HUT cancer cell line) was > 3300 nM.
